Measured values as given in ChEMBL document CHEMBL1122964, “Conformational analysis and active site modelling of angiotensin-converting enzyme inhibitors” (J Med Chem, 1985).
Where a SMILES comes first, the peptide text is derived from it. The star is where a group is joined. Bz = O=C(c1ccccc1)*

What follows are compounds tested against T1, Angiotensin-converting enzyme (Homo sapiens, UniProt P12821) (assay: Compound was evaluated for the inhibition of Angiotensin I converting enzyme). Conditions: not given.
T1 sequence (P12821 whole entry): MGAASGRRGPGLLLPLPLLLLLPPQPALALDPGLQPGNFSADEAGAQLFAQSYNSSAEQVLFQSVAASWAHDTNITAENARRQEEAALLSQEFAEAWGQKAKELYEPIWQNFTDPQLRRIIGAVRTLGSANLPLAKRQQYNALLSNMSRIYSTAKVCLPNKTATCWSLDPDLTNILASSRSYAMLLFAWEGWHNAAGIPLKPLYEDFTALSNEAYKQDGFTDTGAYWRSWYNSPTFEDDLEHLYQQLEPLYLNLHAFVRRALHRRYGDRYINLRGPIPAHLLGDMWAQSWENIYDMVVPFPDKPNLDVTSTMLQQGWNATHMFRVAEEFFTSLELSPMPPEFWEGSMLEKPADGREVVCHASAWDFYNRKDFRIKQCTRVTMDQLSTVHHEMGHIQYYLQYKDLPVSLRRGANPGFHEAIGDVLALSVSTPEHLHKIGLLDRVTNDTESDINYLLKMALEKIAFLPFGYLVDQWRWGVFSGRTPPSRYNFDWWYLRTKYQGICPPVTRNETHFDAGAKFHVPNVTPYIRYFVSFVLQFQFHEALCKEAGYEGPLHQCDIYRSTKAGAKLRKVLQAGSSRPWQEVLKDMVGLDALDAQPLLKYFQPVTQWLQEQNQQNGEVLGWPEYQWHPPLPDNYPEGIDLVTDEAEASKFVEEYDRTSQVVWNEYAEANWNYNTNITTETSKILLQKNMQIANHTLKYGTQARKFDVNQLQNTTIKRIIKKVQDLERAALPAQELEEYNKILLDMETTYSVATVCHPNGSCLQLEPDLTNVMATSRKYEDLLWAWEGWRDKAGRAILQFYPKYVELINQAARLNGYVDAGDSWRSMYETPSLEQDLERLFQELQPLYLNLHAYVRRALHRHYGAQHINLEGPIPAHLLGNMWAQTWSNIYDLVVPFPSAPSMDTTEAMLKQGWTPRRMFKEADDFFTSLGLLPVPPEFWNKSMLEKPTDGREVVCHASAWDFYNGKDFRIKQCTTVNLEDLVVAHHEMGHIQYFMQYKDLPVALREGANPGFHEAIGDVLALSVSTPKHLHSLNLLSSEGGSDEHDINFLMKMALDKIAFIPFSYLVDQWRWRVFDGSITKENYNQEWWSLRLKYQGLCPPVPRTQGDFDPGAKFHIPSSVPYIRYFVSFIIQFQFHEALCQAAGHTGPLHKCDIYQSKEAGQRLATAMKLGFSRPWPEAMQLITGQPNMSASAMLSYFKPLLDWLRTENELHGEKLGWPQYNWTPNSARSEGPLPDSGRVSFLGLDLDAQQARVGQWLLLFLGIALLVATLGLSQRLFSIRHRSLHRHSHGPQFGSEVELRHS

Compared with `C[C@H](NP(=O)(O)CCc1ccccc1)C(=O)N1CCC[C@H]1C(=O)O`, `C[C@@H](NP(=O)(O)O)C(=O)N1CCC[C@H]1C(=O)O` is 2.8-fold higher in Ki: 0.0005 µM for the first, 0.0014 µM for the second.

Each compound was assayed against T1, Angiotensin-converting enzyme (assay: Inhibition of Angiotensin I converting enzyme). Conditions: read-out: I50.

`C[C@H](NC(=O)[C@H](Cc1ccccc1)NC(=O)c1ccccc1)C(=O)N1CCC[C@H]1C(=O)O` (Bz-Phe-Ala-Pro-OH) and `O=C(O)CN1C(=O)[C@@H](NC(CCc2ccccc2)C(=O)O)CSc2ccccc21` (stereo partly specified) are within 1.5-fold of each other in IC50: 0.0032 µM for the first, 0.003 µM for the second.

Going from `O=C(O)[C@H]1CCCN1C(=O)CCS` to `O=C(O)[C@@H]1CCCN1C(=O)CCS`, the IC50 rises from 0.2 µM to 1800 µM (9000-fold). The first is the more potent here.
